Assays:
Adenosine receptor A1 = target: T1, Adenosine receptor A1 (Rattus norvegicus, UniProt P25099)
T1 sequence (P25099 whole entry): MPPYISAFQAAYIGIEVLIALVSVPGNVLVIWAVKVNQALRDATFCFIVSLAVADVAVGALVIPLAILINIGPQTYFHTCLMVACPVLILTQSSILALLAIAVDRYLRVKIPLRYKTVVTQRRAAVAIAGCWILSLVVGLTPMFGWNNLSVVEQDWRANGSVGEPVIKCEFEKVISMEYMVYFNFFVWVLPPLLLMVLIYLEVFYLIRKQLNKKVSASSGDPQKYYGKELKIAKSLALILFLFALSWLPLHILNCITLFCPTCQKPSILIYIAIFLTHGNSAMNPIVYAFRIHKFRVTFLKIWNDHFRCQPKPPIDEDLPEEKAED

Adenosine A2 receptor [1] = target: T2, Adenosine A2 receptor (Rattus norvegicus, UniProt P29276+P30543)
Adenosine A2 receptor [2] = target: T2, Adenosine A2 receptor; assay: Inhibition of [3H]NECA binding to Adenosine A2 receptor of rat striatal membranes; assay type: cell membranes, Membrane

SMILES | Ki (Adenosine receptor A1) [nM] | Ki (Adenosine A2 receptor [1]) [nM] | Ki (Adenosine A2 receptor [2]) [nM]
OC[C@H]1OC(n2cnc3c(NCc4cccc5ccccc45)nc(NCc4ccccc4)nc32)[C@H](O)[C@@H]1O (stereo not given in full) | 530 | 350 | 
CC(Cc1ccccc1)Nc1nc(Nc2ccccc2)nc2c1ncn2C1O[C@H](CO)[C@@H](O)[C@H]1O (stereo not given in full) | 152 | 240 | 
COc1ccc(-c2nc(N)c3ncn(C4O[C@H](CO)[C@@H](O)[C@H]4O)c3n2)cc1 (stereo not given in full) | 1320 |  | 600
OC[C@H]1OC(n2cnc3c(NCC4c5ccccc5-c5ccccc54)nc(Nc4ccccc4)nc32)[C@H](O)[C@@H]1O (stereo not given in full) | 8900 | 2100 | 
OC[C@H]1OC(n2cnc3c(NC4CCCCC4)nc(Nc4ccccc4)nc32)[C@H](O)[C@@H]1O (stereo not given in full) | 54 | 450 | 
COc1cc(OC)cc(C(CNc2nc(Nc3ccccc3)nc3c2ncn3C2O[C@H](CO)[C@@H](O)[C@H]2O)c2ccccc2C)c1 (stereo not given in full) | 10300 | 340 | 
OC[C@H]1OC(n2cnc3c(NCc4cccc5ccccc45)nc(Nc4ccccc4)nc32)[C@H](O)[C@@H]1O (stereo not given in full) | 560 | 230 | 
OC[C@H]1OC(n2cnc3c(NC4CCCC4)nc(Nc4ccccc4)nc32)[C@H](O)[C@@H]1O (stereo not given in full) | 12.4 | 144 | 
OC[C@H]1OC(n2cnc3c(NC4CCCC4)nc(Sc4ccccc4)nc32)[C@H](O)[C@@H]1O (stereo not given in full) | 37 | 4000 | 
OC[C@H]1OC(n2cnc3c(NCc4cccc5ccccc45)nc(F)nc32)[C@H](O)[C@@H]1O (stereo not given in full) | 18.1 | 14.9 | 
Nc1nc(Sc2ccccc2)nc2c1ncn2C1O[C@H](CO)[C@@H](O)[C@H]1O (stereo not given in full) | 2200 |  | 2000
OC[C@H]1O[C@@H](n2cnc3c(NCc4cccc5ccccc45)nc(NC4CCCCC4)nc32)[C@H](O)[C@@H]1O | 45000 | 10300 | 
O=S(=O)(c1ccccc1)c1nc(NC2CCCC2)c2ncn(C3O[C@H](CO)[C@@H](O)[C@H]3O)c2n1 (stereo not given in full) | 96 | 2300 | 
Nc1nc(=O)[nH]c2c1ncn2[C@@H]1O[C@H](CO)[C@@H](O)[C@H]1O [ISOGUANOSINE] |  |  | 330
Nc1nc(NC2CCCC2)c2ncn(C3O[C@H](CO)[C@@H](O)[C@H]3O)c2n1 (stereo not given in full) | 8.3 | 6100 | 
Nc1nc(NC2CCCCC2)c2ncn(C3O[C@H](CO)[C@@H](O)[C@H]3O)c2n1 (stereo not given in full) | 19.3 | 3500 | 
OC[C@H]1OC(n2cnc3c(NN4CCCC4)nc(Nc4ccccc4)nc32)[C@H](O)[C@@H]1O (stereo not given in full) | 18400 | 58000 | 
OC[C@H]1OC(n2cnc3c(NC4CCCCC4)nc(Sc4ccccc4)nc32)[C@H](O)[C@@H]1O (stereo not given in full) | 160 | 6700 | 
Nc1nc(NCC(c2ccccc2)c2ccccc2)c2ncn(C3O[C@H](CO)[C@@H](O)[C@H]3O)c2n1 (stereo not given in full) | 61 | 135 | 
O=S(=O)(c1ccccc1)c1nc(NC2CCCCC2)c2ncn(C3O[C@H](CO)[C@@H](O)[C@H]3O)c2n1 (stereo not given in full) | 420 | 5100 | 
OC[C@H]1OC(n2cnc3c(NC4CC5CCC4C5)nc(Nc4ccccc4)nc32)[C@H](O)[C@@H]1O (stereo not given in full) | 7.7 | 472 | 
Nc1nc(NCC2c3ccccc3-c3ccccc32)c2ncn(C3O[C@H](CO)[C@@H](O)[C@H]3O)c2n1 (stereo not given in full) | 18.5 | 22 | 
OC[C@H]1OC(n2cnc3c(NCc4cccc5ccccc45)nc(Sc4ccccc4)nc32)[C@H](O)[C@@H]1O (stereo not given in full) | 1470 | 610 | 
CC(Cc1ccccc1)Nc1nc(N)nc2c1ncn2C1O[C@H](CO)[C@@H](O)[C@H]1O (stereo not given in full) | 19.2 | 1530 | 

More lines, in order of falling Ki (Adenosine receptor A1), values ahead:

Ki (Adenosine receptor A1) [nM] | Ki (Adenosine A2 receptor [1]) [nM] | Ki (Adenosine A2 receptor [2]) [nM] | SMILES
9000 | 470 |  | COc1cc(OC)cc(C(CNc2nc(Nc3ccccc3)nc3c2ncn3C2O[C@H](CO)[C@@H](O)[C@H]2O)c2ccccc2)c1 (stereo not given in full)
2700 | 650 |  | OC[C@H]1OC(n2cnc3c(NCC(c4ccccc4)c4ccccc4)nc(Nc4ccccc4)nc32)[C@H](O)[C@@H]1O (stereo not given in full)
2600 |  | 1230 | Nc1nc(S(=O)(=O)c2ccccc2)nc2c1ncn2C1O[C@H](CO)[C@@H](O)[C@H]1O (stereo not given in full)
2000 | 270 |  | O=S(=O)(c1ccccc1)c1nc(NCc2cccc3ccccc23)c2ncn(C3O[C@H](CO)[C@@H](O)[C@H]3O)c2n1 (stereo not given in full)
1630 | 7100 |  | OC[C@H]1OC(n2cnc3c(NCc4ccccc4)nc(Nc4ccccc4)nc32)[C@H](O)[C@@H]1O (stereo not given in full)
1620 | 2000 |  | OC[C@H]1OC(n2cnc3c(NCCc4ccccc4)nc(NCCc4ccccc4)nc32)[C@H](O)[C@@H]1O (stereo not given in full)
840 | 800 |  | OC[C@H]1OC(n2cnc3c(NCC(c4ccccc4)c4ccccc4)nc(Sc4ccccc4)nc32)[C@H](O)[C@@H]1O (stereo not given in full)
210 | 1000 |  | CC(Cc1ccccc1)Nc1nc(Sc2ccccc2)nc2c1ncn2C1O[C@H](CO)[C@@H](O)[C@H]1O (stereo not given in full)
68 | 960 |  | OC[C@H]1OC(n2cnc3c(NC4CC4)nc(Nc4ccccc4)nc32)[C@H](O)[C@@H]1O (stereo not given in full)
50 | 1700 |  | CC(O)CNc1nc(Nc2ccccc2)nc2c1ncn2C1O[C@H](CO)[C@@H](O)[C@H]1O (stereo not given in full)
5 | 9300 |  | CC(O)CNc1ncnc2c1ncn2C1O[C@H](CO)[C@@H](O)[C@H]1O (stereo not given in full)
3.2 |  |  | OC[C@H]1O[C@@H](n2cnc3c(NC4CC4)ncnc32)[C@H](O)[C@@H]1O
